Reference: patent US9994547B2, “Heteroarylamide inhibitors of TBK1” (Takeda Pharmaceutical Company Limited, priority 2014, dated 2018)

These compounds were tested on C57/BL6 mice (assay: Inhibition of ConA Induced Hepatitis (Example B)). Conditions: Mus musculus; oral, 1 hr before ConA 15 mg/kg i.v.; plasma ALT post 8-24 hrs; read-out: ED50 (amount of test compound that reduces ConA induced increase in plasma ALT level by 50%).
Assay type: in vivo
Description: Orally administer compound into normal C57/BL6 mice at several doses. After 1 hr, inject i.v. with ConA 15 mg/kg, (N=5). Post 8-24 hrs, collect plasma and liver. Measure plasma ALT enzyme level. An ED50 is determined as the amount of test compound that reduces ConA induced increase in plasma ALT level by 50%.

SMILES	ED50 [mg/kg]
C[C@H](Nc1cc(-c2cnc(NC(=O)C3CC3)cn2)ccc1C#N)C(=O)N(C)C [Example 1, (S)-N-(5-(4-cyano-3-((1-(dimethylamino)-1-oxopropan-2-yl)amino)phenyl)pyrazin-2-yl)cyclopropanecarboxamide]	5

These compounds were tested against Full length human TBK1 (Homo sapiens (Human), UniProt Q9UHD2) (assay: Inhibition of TBK1 Enzyme (Example A)). Conditions: -log(IC50), IC50 molar; 3 nM TBK1, 25 μM ATP, 60 min RT.
Assay type: biochemical
How it was run: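 Full-length N-His human TBK1 from Sf9 baculovirus was tested with 11-point 2.5-fold dilutions (1% DMSO) in Hepes pH 7.4, MgCl2, EDTA, Brij, DTT. After 60 min RT and EDTA quench, microfluidic conversion was fitted and reported as pIC50.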

Full length human TBK1, sequence (Q9UHD2 whole entry): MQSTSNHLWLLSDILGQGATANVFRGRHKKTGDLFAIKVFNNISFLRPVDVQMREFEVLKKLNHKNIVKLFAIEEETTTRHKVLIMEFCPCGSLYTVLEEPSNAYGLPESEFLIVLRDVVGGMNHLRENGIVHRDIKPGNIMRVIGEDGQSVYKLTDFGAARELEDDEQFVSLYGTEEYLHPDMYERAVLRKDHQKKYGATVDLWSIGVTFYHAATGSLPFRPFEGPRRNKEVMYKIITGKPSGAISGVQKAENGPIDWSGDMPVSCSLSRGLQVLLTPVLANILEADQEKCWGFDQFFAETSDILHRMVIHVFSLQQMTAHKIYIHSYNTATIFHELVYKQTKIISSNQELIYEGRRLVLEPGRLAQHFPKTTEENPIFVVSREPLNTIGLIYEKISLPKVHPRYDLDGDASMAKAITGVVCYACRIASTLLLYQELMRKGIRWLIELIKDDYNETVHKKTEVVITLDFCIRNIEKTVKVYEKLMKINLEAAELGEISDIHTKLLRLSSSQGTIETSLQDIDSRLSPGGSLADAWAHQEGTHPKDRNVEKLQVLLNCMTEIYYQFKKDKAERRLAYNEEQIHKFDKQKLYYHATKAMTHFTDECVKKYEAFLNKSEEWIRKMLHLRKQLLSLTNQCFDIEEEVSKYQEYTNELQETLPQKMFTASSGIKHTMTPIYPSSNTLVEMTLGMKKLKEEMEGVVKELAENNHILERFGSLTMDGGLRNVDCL

SMILES	TBK1 Inhibition (pIC50)
C[C@H](Nc1cc(-c2cnc(NC(=O)C3CC3)cn2)ccc1C#N)C(=O)N(C)C [Example 1, (S)-N-(5-(4-cyano-3-((1-(dimethylamino)-1-oxopropan-2-yl)amino)phenyl)pyrazin-2-yl)cyclopropanecarboxamide]	8.1
COCC[C@H](Nc1cc(-c2cnc(NC(=O)C3CC3)cn2)cnc1C#N)C(=O)N(C)CCO [Example 52, (S)-N-(5-(6-cyano-5-((1-((2-hydroxyethyl)(methyl)amino)-4-methoxy-1-oxobutan-2-yl)amino)pyridin-3-yl)pyrazin-2-yl)cyclopropanecarboxamide]	6.5
N#Cc1ncc(-c2cnc(NC(=O)C3CC3)cn2)cc1NCC(=O)N1CCC[C@@H]1C(F)(F)F [Example 48, (R)-N-(5-(6-cyano-5-((2-oxo-2-(2-(trifluoromethyl)pyrrolidin-1-yl)ethyl)amino)pyridin-3-yl)pyrazin-2-yl)cyclopropanecarboxamide]	8.2
CN(C)C(=O)[C@H](CC(F)F)Nc1cc(-c2cnc(NC(=O)C3CC3)cn2)ccc1C#N [Example 34, (S)-N-(5-(4-cyano-3-((1-(dimethylamino)-4,4-difluoro-1-oxobutan-2-yl)amino)phenyl)pyrazin-2-yl)cyclopropanecarboxamide]	8.2
CN(C(=O)CNc1cc(-c2cnc(NC(=O)C3CC3)cn2)ccc1C#N)C1CC1 [Example 25, N-(5-(4-cyano-3-((2-(cyclopropyl(methyl)amino)-2-oxoethyl)amino)phenyl)pyrazin-2-yl)cyclopropanecarboxamide]	7.4
C[C@H](Nc1cc(-c2cnc(NC(=O)C3CC3)cn2)cnc1C#N)C(=O)N(C)CC#N [Example 50, (S)-N-(5-(6-cyano-5-((1-((cyanomethyl)(methyl)amino)-1-oxopropan-2-yl)amino)pyridin-3-yl)pyrazin-2-yl)cyclopropanecarboxamide]	7.9
N#Cc1ncc(-c2cnc(NC(=O)C3CC3)cn2)cc1NCC(=O)N1CCC1C(F)(F)F (stereo not drawn) [Example 94, N-(5-(6-cyano-5-((2-oxo-2-(2-(trifluoromethyl)azetidin-1-yl)ethyl)amino)pyridin-3-yl)pyrazin-2-yl)cyclopropanecarboxamide]	7.3
CC(Nc1cc(-c2cnc(NC(=O)C3CC3)cn2)cnc1C#N)C(=O)N(C)CC(F)(F)F (stereo not drawn) [Example 41, N-(5-(6-cyano-5-((1-(methyl(2,2,2-trifluoroethyl)amino)-1-oxopropan-2-yl)amino)pyridin-3-yl)pyrazin-2-yl)cyclopropanecarboxamide]	7.8
CC[C@@H](Nc1cc(-c2cnc(NC(=O)C3CC3)cn2)ccc1C#N)C(=O)N(C)C [Example 26, (R)-N-(5-(4-cyano-3-((1-(dimethylamino)-1-oxobutan-2-yl)amino)phenyl)pyrazin-2-yl)cyclopropanecarboxamide]	8.5
C[C@H](O)[C@@H](Nc1cc(-c2cnc(NC(=O)C3CC3)cn2)cnc1C#N)C(=O)N(C)C [Example 38, N-(5-(6-cyano-5-(((2R,3S)-1-(dimethylamino)-3-hydroxy-1-oxobutan-2-yl)amino)pyridin-3-yl)pyrazin-2-yl)cyclopropanecarboxamide]	5.8
C[C@H](Nc1cc(-c2cnc(NC(=O)[C@@H]3C[C@@H]3C)cn2)cnc1C#N)C(=O)N(C)C [Example 108, (1R,2S)-N-(5-(6-cyano-5-(((S)-1-(dimethylamino)-1-oxopropan-2-yl)amino)pyridin-3-yl)pyrazin-2-yl)-2-methylcyclopropanecarboxamide]	7.7
CC(C)NC(=O)[C@H](C)Nc1cc(-c2cnc(NC(=O)C3CC3)cn2)ccc1C#N [Example 14, (S)-N-(5-(4-cyano-3-((1-(isopropylamino)-1-oxopropan-2-yl)amino)phenyl)pyrazin-2-yl)cyclopropanecarboxamide]	6.9
C[C@H](Nc1cc(-c2cnc(NC(=O)C3CC3)cn2)cnc1C#N)C(=O)N(CC#N)CCO [Example 93, (S)-N-(5-(6-cyano-5-((1-((cyanomethyl)(2-hydroxyethyl)amino)-1-oxopropan-2-yl)amino)pyridin-3-yl)pyrazin-2-yl)cyclopropanecarboxamide]	6.8
C[C@H](Nc1cc(-c2cnc(NC(=O)C3CC3)cn2)cnc1C#N)C(=O)NCC(F)(F)F [Example 116, (S)-N-(5-(6-cyano-5-((1-oxo-1-((2,2,2-trifluoroethyl)amino)propan-2-yl)amino)pyridin-3-yl)pyrazin-2-yl)cyclopropanecarboxamide]	7.3
COCCN1CCN(C(=O)CNc2cc(-c3cnc(NC(=O)C4CC4)cn3)cnc2C#N)CC1 [Example 98, N-(5-(6-cyano-5-((2-(4-(2-methoxyethyl)piperazin-1-yl)-2-oxoethyl)amino)pyridin-3-yl)pyrazin-2-yl)cyclopropanecarboxamide]	5.1
COCCN(CC(F)(F)F)C(=O)CNc1cc(-c2cnc(NC(=O)C3CC3)cn2)cnc1C#N [Example 77, N-(5-(6-cyano-5-((2-((2-methoxyethyl)(2,2,2-trifluoroethyl)amino)-2-oxoethyl)amino)pyridin-3-yl)pyrazin-2-yl)cyclopropanecarboxamide]	7.2
CN(C)C(=O)C(CO)Nc1cc(-c2cnc(NC(=O)C3CC3)cn2)ccc1C#N (stereo not drawn) [Example 18, N-(5-(4-cyano-3-((1-(dimethylamino)-3-hydroxy-1-oxopropan-2-yl)amino)phenyl)pyrazin-2-yl)cyclopropanecarboxamide]	7.5
CC1CC1C(=O)Nc1cnc(-c2cnc(C#N)c(N[C@@H](C)C(=O)N(C)CC(F)F)c2)cn1 (stereo partly drawn) [Example 86, N-(5-(6-cyano-5-(((S)-1-((2,2-difluoroethyl)(methyl)amino)-1-oxopropan-2-yl)amino)pyridin-3-yl)pyrazin-2-yl)-2-methylcyclopropanecarboxamide]	8.4
C[C@H](Nc1cc(-c2cnc(NC(=O)C3CC3)cn2)ccc1C#N)C(=O)NCCO [Example 13, (S)-N-(5-(4-cyano-3-((1-((2-hydroxyethyl)amino)-1-oxopropan-2-yl)amino)phenyl)pyrazin-2-yl)cyclopropanecarboxamide]	6.3
CN(CC(F)F)C(=O)[C@H](CO)Nc1cc(-c2cnc(NC(=O)C3CC3)cn2)cnc1C#N [Example 58, (S)-N-(5-(6-cyano-5-((1-((2,2-difluoroethyl)(methyl)amino)-3-hydroxy-1-oxopropan-2-yl)amino)pyridin-3-yl)pyrazin-2-yl)cyclopropanecarboxamide]	7.3
